Experimental data as given in ChEMBL document CHEMBL5634092, “Design, synthesis, and biological evaluation of novel HDAC/CD13 dual inhibitors for the treatment of cancer” (Eur J Med Chem, 2023).
pIC50: −log10 of the molar value.

Legend:
Aminopeptidase N [1] = biological target: T1, Aminopeptidase N (Sus scrofa, UniProt P15145); assay: Inhibition of porcine kidney CD13 using L-leucine-p-nitroanilide as substrate incubated for 30 mins by microplate reader analysis
T1 sequence (P15145 whole entry): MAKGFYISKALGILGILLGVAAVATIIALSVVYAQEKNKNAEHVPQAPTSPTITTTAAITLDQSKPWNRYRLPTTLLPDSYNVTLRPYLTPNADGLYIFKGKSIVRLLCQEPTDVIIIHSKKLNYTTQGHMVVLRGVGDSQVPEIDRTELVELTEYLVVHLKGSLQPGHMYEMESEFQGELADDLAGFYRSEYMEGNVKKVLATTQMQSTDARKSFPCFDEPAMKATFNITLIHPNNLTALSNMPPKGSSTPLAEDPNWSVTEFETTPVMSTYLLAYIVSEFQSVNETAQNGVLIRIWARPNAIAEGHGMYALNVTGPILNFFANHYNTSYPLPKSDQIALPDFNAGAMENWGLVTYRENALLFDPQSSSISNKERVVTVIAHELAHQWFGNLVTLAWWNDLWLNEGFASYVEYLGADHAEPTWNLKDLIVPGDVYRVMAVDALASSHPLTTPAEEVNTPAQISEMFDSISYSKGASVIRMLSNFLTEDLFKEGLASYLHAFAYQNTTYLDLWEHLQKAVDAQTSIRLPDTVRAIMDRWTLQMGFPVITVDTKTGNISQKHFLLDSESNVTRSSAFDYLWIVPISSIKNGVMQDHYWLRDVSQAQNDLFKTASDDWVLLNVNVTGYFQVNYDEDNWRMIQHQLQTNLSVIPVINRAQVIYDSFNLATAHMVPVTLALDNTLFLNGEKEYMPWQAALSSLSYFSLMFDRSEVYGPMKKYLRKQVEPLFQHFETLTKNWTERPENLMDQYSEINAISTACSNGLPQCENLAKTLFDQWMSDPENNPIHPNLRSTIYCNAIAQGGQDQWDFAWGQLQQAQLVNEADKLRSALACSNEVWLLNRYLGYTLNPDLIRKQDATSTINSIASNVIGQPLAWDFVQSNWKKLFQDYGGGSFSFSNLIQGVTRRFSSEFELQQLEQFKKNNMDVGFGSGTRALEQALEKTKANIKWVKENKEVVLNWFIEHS

Histone deacetylase 3 = Histone deacetylase 3 (Homo sapiens, UniProt O15379); assay: Inhibition of human HDAC3 using Boc-Lys (acetyl)-AMC as substrate incubated for 1 hr followed by substrate addition and further incubated for 2 hrs by fluorescence assay
Histone deacetylase 1 = Histone deacetylase 1 (Homo sapiens, UniProt Q13547); assay: Inhibition of human HDAC1 using Boc-Lys (acetyl)-AMC as substrate incubated for 1 hr followed by substrate addition and further incubated for 2 hrs by fluorescence assay
Histone deacetylase 2 = Histone deacetylase 2 (Homo sapiens, UniProt Q92769); assay: Inhibition of human HDAC2 using Boc-Lys (acetyl)-AMC as substrate incubated for 1 hr followed by substrate addition and further incubated for 2 hrs by fluorescence assay
MV4-11 [2] = assay: Antiproliferative activity against human MV4-11 cells incubated for 48 hrs by resazurin based microplate reader analysis; conditions: MV4-11, 48 h
Aminopeptidase N [3] = biological target: Aminopeptidase N (Homo sapiens, UniProt P15144); assay: Inhibition of human CD13 using L-leucine-p-nitroanilide as substrate incubated for 30 mins by microplate reader analysis
JeKo-1 = assay: Antiproliferative activity against human JeKo-1 cells incubated for 48 hrs by resazurin based microplate reader analysis; conditions: JeKo-1, 48 h
[4] = Cytotoxicity against human HL7702 cells incubated for 48 hrs by resazurin based microplate reader analysis; conditions: HL7702 (L02) cells
K562 = assay: Antiproliferative activity against human K562 cells incubated for 48 hrs by resazurin based microplate reader analysis; conditions: K562, 48 h
HL-60 = assay: Antiproliferative activity against human HL-60 cells incubated for 48 hrs by resazurin based microplate reader analysis; conditions: HL-60, 48 h
BXPC-3 = assay: Antiproliferative activity against human BXPC-3 cells incubated for 48 hrs by resazurin based microplate reader analysis; conditions: BXPC-3, 48 h
A549 [5] = assay: Antiproliferative activity against human A549 cells incubated for 48 hrs by resazurin based microplate reader analysis; conditions: A549, 48 h
MV4-11 [6] = assay: Induction of apoptosis in human MV4-11 cells assessed as apoptotic rate at 2 uM incubated for 24 hrs by Annexin V-FITC staining based flow cytometry (reference value: 24.09 %); type: functional
A549 [7] = assay: Induction of apoptosis in human A549 cells assessed as apoptotic rate at 20 uM incubated for 24 hrs by Annexin V-FITC staining based flow cytometry (reference value: 8.02 %); type: functional
[8] = biological target: T2, Protein deacetylase HDAC6 (Homo sapiens, UniProt Q9UBN7); assay: Inhibition of human HDAC6 using Boc-Lys (acetyl)-AMC as substrate incubated for 1 hr followed by substrate addition and further incubated for 2 hrs by fluorescence assay
T2 sequence (Q9UBN7 whole entry): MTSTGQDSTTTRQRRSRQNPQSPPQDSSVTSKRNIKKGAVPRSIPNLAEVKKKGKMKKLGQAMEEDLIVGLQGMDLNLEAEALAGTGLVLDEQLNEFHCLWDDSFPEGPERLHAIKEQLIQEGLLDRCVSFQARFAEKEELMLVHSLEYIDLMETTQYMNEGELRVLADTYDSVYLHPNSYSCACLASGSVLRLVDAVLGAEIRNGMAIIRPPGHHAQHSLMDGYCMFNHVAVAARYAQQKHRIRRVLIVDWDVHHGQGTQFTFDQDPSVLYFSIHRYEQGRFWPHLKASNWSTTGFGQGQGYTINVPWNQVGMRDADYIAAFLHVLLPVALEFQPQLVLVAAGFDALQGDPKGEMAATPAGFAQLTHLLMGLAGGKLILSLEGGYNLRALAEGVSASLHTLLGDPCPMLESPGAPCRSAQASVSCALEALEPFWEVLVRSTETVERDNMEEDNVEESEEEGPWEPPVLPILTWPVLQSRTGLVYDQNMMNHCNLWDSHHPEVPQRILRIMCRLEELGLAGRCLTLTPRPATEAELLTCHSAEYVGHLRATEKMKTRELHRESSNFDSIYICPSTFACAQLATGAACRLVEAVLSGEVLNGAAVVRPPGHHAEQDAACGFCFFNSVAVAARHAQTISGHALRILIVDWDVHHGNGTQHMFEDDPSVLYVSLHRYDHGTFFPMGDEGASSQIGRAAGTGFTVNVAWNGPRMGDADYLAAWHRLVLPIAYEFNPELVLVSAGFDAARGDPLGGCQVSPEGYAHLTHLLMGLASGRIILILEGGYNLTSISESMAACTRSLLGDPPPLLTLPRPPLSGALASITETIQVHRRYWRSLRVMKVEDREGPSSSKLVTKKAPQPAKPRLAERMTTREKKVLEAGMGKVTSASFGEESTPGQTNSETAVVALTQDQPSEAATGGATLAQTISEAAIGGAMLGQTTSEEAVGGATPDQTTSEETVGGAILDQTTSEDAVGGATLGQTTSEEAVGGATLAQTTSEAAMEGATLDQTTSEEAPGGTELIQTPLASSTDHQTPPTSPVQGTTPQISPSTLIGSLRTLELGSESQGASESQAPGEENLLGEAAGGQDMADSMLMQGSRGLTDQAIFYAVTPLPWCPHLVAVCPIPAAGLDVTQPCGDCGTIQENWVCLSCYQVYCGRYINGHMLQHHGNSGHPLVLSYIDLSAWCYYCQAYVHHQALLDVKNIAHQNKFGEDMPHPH

Histone deacetylase 8 = biological target: T3, Histone deacetylase 8 (Homo sapiens, UniProt Q9BY41); assay: Inhibition of human HDAC8 using Boc-Lys (tri-fluoroacetyl)-AMC as substrate incubated for 1 hr followed by substrate addition and further incubated for 2 hrs by fluorescence assay
T3 sequence (Q9BY41 whole entry): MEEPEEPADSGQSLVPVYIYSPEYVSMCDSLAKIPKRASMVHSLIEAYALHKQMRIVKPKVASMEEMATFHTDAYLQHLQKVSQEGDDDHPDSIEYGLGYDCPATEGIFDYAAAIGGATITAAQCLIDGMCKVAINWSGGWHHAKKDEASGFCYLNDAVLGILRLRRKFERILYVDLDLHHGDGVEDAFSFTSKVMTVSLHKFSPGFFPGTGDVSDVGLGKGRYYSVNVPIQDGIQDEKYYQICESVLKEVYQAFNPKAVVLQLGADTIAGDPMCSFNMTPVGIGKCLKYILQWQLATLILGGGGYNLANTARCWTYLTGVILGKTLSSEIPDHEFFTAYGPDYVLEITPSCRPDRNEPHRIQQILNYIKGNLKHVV

Chain of Histone deacetylase 2 (Q92769 whole entry): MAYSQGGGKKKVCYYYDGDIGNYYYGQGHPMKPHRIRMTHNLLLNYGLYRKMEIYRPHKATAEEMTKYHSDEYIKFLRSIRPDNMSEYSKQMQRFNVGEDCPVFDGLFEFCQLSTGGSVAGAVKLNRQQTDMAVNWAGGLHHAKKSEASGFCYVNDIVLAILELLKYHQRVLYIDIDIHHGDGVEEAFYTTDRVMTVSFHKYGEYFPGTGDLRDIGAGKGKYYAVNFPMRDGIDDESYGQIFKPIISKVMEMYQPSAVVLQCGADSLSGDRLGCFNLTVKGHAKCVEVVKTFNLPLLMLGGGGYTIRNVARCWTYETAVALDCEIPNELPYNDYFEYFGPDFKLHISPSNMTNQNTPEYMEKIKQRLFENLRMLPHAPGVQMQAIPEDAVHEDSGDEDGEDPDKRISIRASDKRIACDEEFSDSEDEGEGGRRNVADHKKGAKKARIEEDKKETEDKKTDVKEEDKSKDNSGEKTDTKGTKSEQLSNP
Chain of Histone deacetylase 3 (O15379 whole entry): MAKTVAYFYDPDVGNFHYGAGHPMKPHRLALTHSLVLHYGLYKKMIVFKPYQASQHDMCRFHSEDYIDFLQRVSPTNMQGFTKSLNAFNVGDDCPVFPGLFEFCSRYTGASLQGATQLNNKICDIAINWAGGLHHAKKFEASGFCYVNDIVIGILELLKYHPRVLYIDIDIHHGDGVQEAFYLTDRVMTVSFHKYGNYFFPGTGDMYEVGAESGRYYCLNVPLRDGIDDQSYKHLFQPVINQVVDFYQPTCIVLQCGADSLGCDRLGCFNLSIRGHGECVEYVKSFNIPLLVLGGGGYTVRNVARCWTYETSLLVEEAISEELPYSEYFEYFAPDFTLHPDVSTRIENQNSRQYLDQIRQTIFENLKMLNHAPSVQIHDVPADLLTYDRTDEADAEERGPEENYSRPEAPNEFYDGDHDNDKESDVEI
Chain of Histone deacetylase 1 (Q13547 whole entry): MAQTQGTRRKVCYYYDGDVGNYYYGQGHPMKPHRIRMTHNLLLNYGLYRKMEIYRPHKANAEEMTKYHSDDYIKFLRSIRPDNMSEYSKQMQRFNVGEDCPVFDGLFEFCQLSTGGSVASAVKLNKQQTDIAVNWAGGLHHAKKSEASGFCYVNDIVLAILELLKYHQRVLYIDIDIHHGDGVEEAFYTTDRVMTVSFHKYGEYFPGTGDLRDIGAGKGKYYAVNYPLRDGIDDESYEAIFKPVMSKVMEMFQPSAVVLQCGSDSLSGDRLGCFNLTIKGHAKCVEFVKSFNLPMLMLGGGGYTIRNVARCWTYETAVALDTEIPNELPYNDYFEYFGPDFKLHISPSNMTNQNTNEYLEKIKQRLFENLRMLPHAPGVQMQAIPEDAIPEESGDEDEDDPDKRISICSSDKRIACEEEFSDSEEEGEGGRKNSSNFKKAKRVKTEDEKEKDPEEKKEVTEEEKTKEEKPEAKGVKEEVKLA
Chain of Aminopeptidase N (Homo sapiens, UniProt P15144) (P15144 whole entry): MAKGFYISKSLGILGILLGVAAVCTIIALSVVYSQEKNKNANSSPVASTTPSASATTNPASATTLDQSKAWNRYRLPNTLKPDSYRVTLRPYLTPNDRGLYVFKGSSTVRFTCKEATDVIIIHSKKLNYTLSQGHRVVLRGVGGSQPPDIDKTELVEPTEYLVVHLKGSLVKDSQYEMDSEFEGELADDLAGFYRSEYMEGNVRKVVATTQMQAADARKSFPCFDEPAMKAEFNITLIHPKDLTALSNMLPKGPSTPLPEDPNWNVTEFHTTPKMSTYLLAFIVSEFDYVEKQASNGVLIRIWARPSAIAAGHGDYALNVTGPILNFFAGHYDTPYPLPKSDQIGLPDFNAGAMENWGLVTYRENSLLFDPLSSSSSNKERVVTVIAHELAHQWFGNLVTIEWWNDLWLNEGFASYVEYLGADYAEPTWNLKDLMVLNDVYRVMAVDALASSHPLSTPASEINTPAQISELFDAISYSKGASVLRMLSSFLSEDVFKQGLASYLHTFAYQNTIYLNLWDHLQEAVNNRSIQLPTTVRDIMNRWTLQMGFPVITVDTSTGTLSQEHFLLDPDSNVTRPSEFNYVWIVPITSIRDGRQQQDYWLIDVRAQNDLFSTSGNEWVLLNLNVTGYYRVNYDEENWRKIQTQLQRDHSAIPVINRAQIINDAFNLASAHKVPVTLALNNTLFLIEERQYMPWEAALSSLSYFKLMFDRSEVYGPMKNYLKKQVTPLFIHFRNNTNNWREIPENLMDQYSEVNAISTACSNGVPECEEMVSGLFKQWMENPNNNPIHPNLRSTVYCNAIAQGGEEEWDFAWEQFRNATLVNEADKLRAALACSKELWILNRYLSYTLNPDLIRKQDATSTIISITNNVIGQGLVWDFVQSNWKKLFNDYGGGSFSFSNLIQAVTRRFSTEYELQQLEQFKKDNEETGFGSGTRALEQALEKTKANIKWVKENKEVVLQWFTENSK

| Compound | pIC50 (Aminopeptidase N [1]) | pIC50 (Histone deacetylase 3) | further results |
| --- | --- | --- | --- |
| CCCNNC(=O)CCCCCNC(=O)[C@H](CC(C)C)NC(=O)[C@@H](O)[C@H](N)Cc1ccccc1 | 5.52 | 7.05 |  |
| CCCNNC(=O)[C@H](CC(C)C)NC(=O)[C@@H](O)[C@H](N)Cc1ccccc1 | 4.74 | < 5.00 | pIC50 (Histone deacetylase 1): < 5.00; pIC50 (Histone deacetylase 2): < 5.00; pIC50 (MV4-11 [2]): < 4.70 |
| CCCNNC(=O)c1ccc(CNC(=O)[C@H](CC(C)C)NC(=O)[C@H](O)[C@@H](N)Cc2ccccc2)cc1 | < 4.70 | 7.22 | pIC50 (Aminopeptidase N [3]): < 4.70 |
| CCCNNC(=O)c1ccc(CNC(=O)[C@H](CC(C)C)NC(=O)NCc2cccc3ccccc23)cc1 | < 4.70 | 6.92 |  |
| COC(=O)c1ccc(CNC(=O)[C@H](CC(C)C)NC(=O)[C@@H](O)[C@H](N)Cc2ccccc2)cc1.Cl | 5.87 | 5.62 | pIC50 (JeKo-1): < 4.70; IC50 at 48 h [4]: > 100000 nM; pIC50 (Aminopeptidase N [3]): 6.32; pIC50 (Histone deacetylase 1): < 5.00; pIC50 (Histone deacetylase 2): < 5.00; pIC50 (MV4-11 [2]): < 4.70; pIC50 (K562): < 4.70; pIC50 (HL-60): < 4.70; pIC50 (BXPC-3): < 4.70; pIC50 (A549 [5]): < 4.70; Activity (MV4-11 [6]): 33.7%; Activity (A549 [7]): 8.31% |
| CCCNNC(=O)c1ccc(CNC(=O)[C@H](CC(C)C)NC(=O)[C@@H](NC(=O)[C@@H](O)[C@H](N)Cc2ccccc2)[C@@H](C)CC)cc1 | 6.40 | 7.10 |  |
| CC(C)C[C@H](NC(=O)[C@@H](O)[C@H](N)Cc1ccccc1)C(=O)NCc1ccc(C(=O)NO)cc1 | 6.26 | 5.84 | pIC50 [8]: 6.48; pIC50 (Histone deacetylase 8): 5.87 |
| CCCNNC(=O)c1ccc(CNC(=O)[C@H](CC(C)C)NC(=O)Nc2c(C)cccc2C)cc1 | < 4.70 | 6.54 |  |
| CC(C)C[C@H](NC(=O)[C@@H](O)[C@H](N)Cc1ccccc1)C(=O)NCc1ccc(C(=O)Nc2ccccc2N)cc1 | 5.79 | 7.22 |  |
| CCCNNC(=O)CCCCCCNC(=O)[C@H](CC(C)C)NC(=O)[C@@H](O)[C@H](N)Cc1ccccc1 | 5.02 | 7.30 |  |
| CCCNNC(=O)c1ccc(CNC(=O)[C@H]2CCCN2C(=O)[C@H](CC(C)C)NC(=O)[C@@H](O)[C@H](N)Cc2ccccc2)cc1 | 5.57 |  |  |
| CC(C)C[C@H](NC(=O)[C@@H](O)[C@H](N)Cc1ccccc1)C(=O)O [UBENIMEX] |  | < 5.00 | pIC50 (Histone deacetylase 1): < 5.00; pIC50 (Histone deacetylase 2): < 5.00; pIC50 (MV4-11 [2]): < 4.70 |
| O=C(CCCCCCC(=O)Nc1ccccc1)NO [VORINOSTAT] | < 4.70 |  |  |
